{
  "source": "patent US12077483B2",
  "about": "“Modified amine lipids” (Intellia Therapeutics, Inc., priority 2018, dated 2024)",
  "key": {"[1]": {"assay": "Tolerability in rats: liver enzyme panel 24 hours post dose", "format": "in vivo, rat", "conditions": "Sprague Dawley female rats, 6 mg/kg, serum", "protocol": "(§1) For efficacy, Sprague Dawley female rats were dosed i.v. at 0.1 mpk or 0.03 mpk. 6-7 days post dose, rats were euthanized by CO2 asphyxiation. Blood was collected into serum separator tubes. Liver biopsy processed for gDNA and assessed for editing by NGS methods described in Example 115. Results are shown in Table 11 and FIGS. 12A and 12B. For tolerability, Sprague Dawley female rats were dosed at 6 mpk and 24 hours post dose the animals were euthanized by CO2 asphyxiation. Blood was collected into serum separator tubes and sent to an external CRO for quantitation of liver enzymes via a liver enzyme panel."}, "mouse TTR gene": {"system": "mouse TTR gene", "assay": "In vivo editing in mouse liver, LNP with Cas9 mRNA and sgRNA G502, NGS", "conditions": "G502, sgRNA:Cas9 mRNA 1:2 w/w, Example 119", "protocol": "CD-1 female mice, ranging from 6-10 weeks of age were used in each study. Animals were weighed and grouped according to body weight for preparing dosing solutions based on group average weight. LNPs were dosed via the lateral tail vein in a volume of 0.2 mL per animal (approximately 10 mL per kilogram body weight). The animals were periodically observed for adverse effects for at least 24 hours post dose.\nFor studies measuring in vivo editing in liver, CD-1 female mice were dosed at 0.1 mpk unless otherwise noted. Animals were euthanized at 6 or 7 days by exsanguinationvia cardiac puncture under isoflourane anesthesia. Liver tissue was collected from each animal for DNA extraction and analysis. Blood was collected into serum separator tubes or into tubes containing buffered sodium citrate for plasma as described herein. Cohorts of mice were measured for editing by Next-Generation Sequencing (NGS).\n(§2) In brief, to quantitatively determine the efficiency of editing at the target location in the genome, genomic DNA was isolated and deep sequencing was utilized to identify the presence of insertions and deletions introduced by gene editing.\nPCR primers were designed around the target site (e.g., B2M), and the genomic area of interest was amplified. […] The reads were aligned to the relevant reference genome (e.g., GRCm38) after eliminating those having low quality scores. The resulting files containing the reads were mapped to the reference genome (BAM files), where reads that overlapped the target region of interest were selected and the number of wild type reads versus the number of reads which contain an insertion, substitution, or deletion was calculated.\n(§3) The editing percentage (e.g., the “editing efficiency” or “percent editing”) is defined as the total number of sequence reads with insertions or deletions over the total number of sequence reads, including wild type.\nWe assessed in vivo editing efficiency for materials delivered with formulations with variable tail lengths through in vivo editing experiments. […]"}, "rat TTR": {"system": "rat TTR", "assay": "In vivo editing in rat liver, LNP with Cas9 mRNA and sgRNA G534, NGS", "conditions": "Table 11, Sprague Dawley female rats i.v., liver 6-7 days post dose", "protocol": "as §2\nPCR primers were designed around the target site (e.g., B2M), and the genomic area of interest was amplified. Additional PCR was performed according to the manufacturer's protocols (Illumina) to add the necessary chemistry for sequencing. The amplicons were sequenced on an Illumina MiSeq instrument. The reads were aligned to the relevant reference genome (e.g., GRCm38) after eliminating those having low quality scores. The resulting files containing the reads were mapped to the reference genome (BAM files), where reads that overlapped the target region of interest were selected and the number of wild type reads versus the number of reads which contain an insertion, substitution, or deletion was calculated.\nas §3\nTo assess lipid efficacy, dose response experiments were performed in vivo. Cas9 mRNA of Example 115 was formulated as LNPs with a gRNA targeting TTR (G00534; SEQ ID NO: 5). These LNPs were formulated, prepared and analyzed as described in Example 115 using a 1:2 w/w ratio of a sgRNA and Cas9 mRNA. Composition analysis for these LNPs are described in Table 10.\nas §1"}},
  "data": [
    {"smiles": "CCCCC/C=C\\C/C=C\\CCCCCCCC(=O)OCC(COC(=O)CCCCCCC/C=C\\C/C=C\\CCCCC)OC(=O)CCC(CCCCCC)OC(=O)NCCN1CCCC1", "note": "(racemic) [Compound 50, 2-((4-(((2-(pyrrolidin-1-yl)ethyl)carbamoyl)oxy)decanoyl)oxy)propane-1,3-diyl (9Z,9′Z,12Z,12′Z)-bis(octadeca-9,12-dienoate)]", "values": [
      {"measurement": "ALP (U/L)", "setting": "[1]", "value": 508.6, "unit": "U/L"},
      {"measurement": "ALT (U/L)", "setting": "[1]", "value": 250.8, "unit": "U/L"},
      {"measurement": "AST (U/L)", "setting": "[1]", "value": 820.8, "unit": "U/L"},
      {"measurement": "Creatine kinase (U/L)", "setting": "[1]", "value": 272, "unit": "U/L"},
      {"measurement": "GGT (U/L)", "setting": "[1]", "value": 11, "unit": "U/L"},
      {"measurement": "Total Bilirubin", "setting": "[1]", "value": 0.4, "unit": "mg/dL"},
      {"measurement": "efficacy for in vivo editing (in words)", "setting": "mouse TTR gene", "value": "efficacious"},
      {"measurement": "Editing % Editing", "setting": "rat TTR; dose 0.03 mpk", "value": 26.9, "unit": "%"},
      {"measurement": "Editing % Editing", "setting": "rat TTR; dose 0.1 mpk", "value": 62.6, "unit": "%"}
    ]},
    {"smiles": "CCCCC/C=C\\C/C=C\\CCCCCCCC(=O)OCC(COC(=O)CCCCCCC/C=C\\C/C=C\\CCCCC)OC(=O)CCC(CCCCC)OC(=O)NCCN1CCCC1", "note": "(stereo not shown) [Compound 72, 2-((4-(((2-(pyrrolidin-1l-yl)ethyl)carbamoyl)oxy)nonanoyl)oxy)propane-1,3-diyl (9Z,9′Z,12Z,12′Z)-bis(octadeca-9,12-dienoate)]", "values": [
      {"measurement": "efficacy for in vivo editing (in words)", "setting": "mouse TTR gene", "value": "efficacious"}
    ]}
  ]
}
